# Values joined by “and” are separate entries in the source; they are usually repeats but may differ in a detail not shown here. Equal entries are not always repeated. Marks after values point to notes of the source that are not given here.
# Columns and labels:
# [1] = Singlet oxygen scavenging; format: biochemical
# Protocol: (§1) The ROS scavenging ability of DBME was determined using multiple stable ROS radical scavenging assays, such as hydroxyl, superoxide, hypochlorous radical, singlet oxygen and hydrogen peroxide assays by standard procedures.
# WST-1 cytotoxicity assay = format: cell-based, human; conditions: human, WI-38 human lung fibroblast cells, WI-38 cells, WST-1
# Protocol: (§2) The human lung fibroblast (WI-38) cell line was purchased from the National Centre for Cell Science (NCCS), India. Cells were grown in DMEM supplemented with 10% (v/v) fetal bovine serum (FBS), 100 U/ml penicillin G, 50 μg/ml gentamycin sulfate, 100 μg/ml streptomycin and 2.5 μg/ml amphotericin B. The cell line was maintained in a CO2 incubator at 37°C in a humidified atmosphere containing 5% CO2. Cell proliferation and cell viability were quantified using the WST-1 Cell Proliferation Reagent, Roche diagnostics, according to previously described methods. […] Briefly, WI-38 cells (1 × 10^4 cells/well) were treated with DBME, purpurin, catechin, tannic acid, reserpine, methyl gallate or rutin at doses ranging from 0–120 μg/ml for 48 hours in 96-well culture plates. After treatment, 10 μl of the WST-1 cell proliferation reagent was added to each well followed by 2 hours of incubation at 37°C. Cell proliferation and viability were quantified by measuring the absorbance at 460 nm using a microplate ELISA reader […] EX (Thermo Electron Corporation, USA).
# [2] = Iron chelation assay (Fe2+-ferrozine complex formation); format: biochemical; conditions: for Iron chelating activity IC50: Fe2+-ferrozine, HEPES pH 7.2; for in vitro iron chelation ability (in words): Fe2+-ferrozine complex
# Protocol: The Fe^2+ chelating activity of DBME, catechin, methyl gallate, purpurin, reserpine, rutin and tannic acid was evaluated according to standard methods. HEPES buffer (20 mM, pH 7.2), DBME (0–120 μg/ml) and a positive control EDTA (0–20 μg/ml) were separately added to a 12.5 μM ferrous sulfate solution, and 75 μM ferrozine was added to start the reaction. The mixture was shaken vigorously and left standing for 20 min at room temperature. Next, the absorbance was measured at 562 nm. All tests were performed six times.
# iron overloaded mice [3] = test: Serum markers (ALAT, ASAT, ALP, bilirubin) in iron overloaded mice; format: in vivo, Swiss albino mice; conditions: D: desirox 20 mg/kg b.w. oral 21 days
# Protocol: (§3) Mice were divided into six groups of six mice each. One group was labeled as blank (B) and received normal saline. The other five groups received five intraperitoneal injections of iron-dextran at a dose of 100 mg/kg b.w. (one dose every two days). One iron-dextran group (C) was administered normal saline, and the other four groups were orally treated with either 50 mg/kg b.w. (S50), 100 mg/kg b.w. (S100), 200 mg/kg b.w. (S200) DBME or 20 mg/kg b.w. desirox (D) for 21 days beginning on the day following the first iron-dextran injection.
# (§4) After treatment, mice were fasted overnight on the 21st day and anesthetized with ethyl ether. Blood was collected by cardiac puncture. Serum from the blood samples was separated using a cooling centrifuge and stored at -80°C until analysis. The liver was washed with ice-cold saline and divided into three parts. One major portion of the liver was cut, weighed and homogenized in 10 volumes of 0.1 M phosphate buffer (pH 7.4) containing 5 mM EDTA and 0.15 M NaCl. The sample was centrifuged at 8,000 g for 30 min at 4°C. The protein concentration in the supernatant was estimated according to Lowry's method using BSA as a standard. The remaining samples were stored at -80°C until further analysis. Another portion of the liver was weighed and digested using an equivolume mixture of sulfuric acid and nitric acid for iron content analysis. A final liver sample was used for histopathological studies.
# Alanine amino transferase (ALAT), aspartate amino transferase (ASAT), and bilirubin levels were measured in serum samples using commercial kits from Merck, Mumbai, India. Serum alkaline phosphatase (ALP) was estimated using a kit supplied by Sentinel diagnostics, Italy. The serum ferritin level was measured using an enzyme-linked immunosorbent assay (Monobind Inc., USA) according to the manufacturer’s instructions.
# iron overloaded mice [4] = test: Liver antioxidants (SOD, CAT, GST, GSH) in iron overloaded mice; format: in vivo, Swiss albino mice; conditions: D: desirox 20 mg/kg b.w. oral 21 days
# Protocol: as §3, §4
# Superoxide dismutase (SOD), catalase (CAT) activity, glutathione-S-transferase (GST) and reduced glutathione (GSH) levels were assayed according to previously reported methods.
# [5] = DPPH radical scavenging assay; format: biochemical
# Protocol: The total antioxidant capacity of DBME was evaluated by an ABTS•^+ radical cation decolorization assay in comparison to a trolox standard and 2,2-diphenyl-1-picrylhydrazyl (DPPH) radical scavenging assay. The reducing power of DBME was determined using a previously described method.
# [6] = Hypochlorous acid scavenging; format: biochemical
# Protocol: as §1
# [7] = Superoxide anion scavenging; format: biochemical
# Protocol: as §1
# WI-38 cells = test: WST-1 cytotoxicity assay; format: cell-based, human; conditions: 48 hours; for Cytotoxicity assay IC50: WST-1; for cytotoxicity against normal cells (in words): 0-120 μg/ml
# Protocol: as §2
# [8] = Hydroxyl radical scavenging; format: biochemical
# Protocol: as §1
# Peroxynitrite scavenging = format: biochemical
# Protocol: The RNS scavenging activity of DBME was determined using nitric oxide and peroxynitrite radical scavenging assays.
# [9] = Hydrogen peroxide scavenging; format: biochemical
# Protocol: as §1
compound,measurement,setting,value
"O=C(O)CCCC[C@@H]1CCSS1 (racemic) [Lipoic acid, lipoic acid]",Singlet oxygen scavenging IC50,[1],46.16 ± 1.16 µg/mL
"COC(=O)c1cc(O)c(O)c(O)c1 [Methyl gallate, methyl gallate]",IC50 at 48 h,WST-1 cytotoxicity assay,344 ± 31.3 µg/mL
same,Iron chelating activity IC50,[2],70.86 ± 1.20 µg/mL
"O=C(O)c1ccc(-n2nc(-c3ccccc3O)nc2-c2ccccc2O)cc1 [D, desirox]",ALAT % Change,iron overloaded mice [3]; change vs B group,52.79%
same,ALP % Change,iron overloaded mice [3]; change vs B group,84.44%
same,ASAT % Change,iron overloaded mice [3]; change vs B group,17.36%
same,Bilirubin % Change,iron overloaded mice [3]; change vs B group,10.97%
same,ALAT,iron overloaded mice [3]; iron overloaded mice,23.29 ± 1.09 ^c ^f Unit/l and 23.29 ± 1.09^cf Unit/l
same,ALP,iron overloaded mice [3]; iron overloaded mice,61.01 ± 2.44 ^c ^f Unit/l and 61.01 ± 2.44^cf Unit/l
same,ASAT,iron overloaded mice [3]; iron overloaded mice,79.35 ± 4.36 ^a ^f Unit/l and 79.35 ± 4.36^af Unit/l
same,Bilirubin,iron overloaded mice [3]; iron overloaded mice,1.68 ± 0.15 ^f mg/dl
same,CAT % Change,iron overloaded mice [4]; change vs B group,26.09%
same,GSH % Change,iron overloaded mice [4]; change vs B group,5.13%
same,GST % Change,iron overloaded mice [4]; change vs B group,35.42%
same,SOD % Change,iron overloaded mice [4]; change vs B group,15.31%
same,CAT,iron overloaded mice [4]; iron overloaded mice,16.14 ± 3.87 ^c ^f Unit/mg protein and 16.14 ± 3.87^cf Unit/mg protein
same,GSH,iron overloaded mice [4]; iron overloaded mice,0.48 ± 0.02 ^a ^f μg/mg protein and 0.48 ± 0.02^af μg/mg protein
same,GST,iron overloaded mice [4]; iron overloaded mice,3.72 ± 0.36 ^c ^f Unit/mg protein and 3.72 ± 0.36^cf Unit/mg protein
same,SOD,iron overloaded mice [4]; iron overloaded mice,0.47 ± 0.05 ^a ^f Unit/mg protein and 0.47 ± 0.05^af Unit/mg protein
"O=C1O[C@H]([C@@H](O)CO)C(O)=C1O [Ascorbic acid, ascorbic acid]",DPPH IC50,[5],5.29 ± 0.28 µg/mL
same,Hypochlorous acid (HOCl) scavenging IC50,[6],235.96 ± 5.75 µg/mL
"O=c1c(O)c(-c2ccc(O)c(O)c2)oc2cc(O)cc(O)c12 [Quercetin, quercetin]",Superoxide anion scavenging IC50,[7],42.06 ± 1.35 µg/mL
tannic acid,Cytotoxicity assay IC50,WI-38 cells,581.03 ± 64.97 µg/mL
same,in vitro iron chelation ability (in words),[2],most effective chelator
same,Iron chelating activity IC50,[2],50.22 ± 0.85 µg/mL
"C[C@@H]1O[C@@H](OC[C@H]2O[C@@H](Oc3c(-c4ccc(O)c(O)c4)oc4cc(O)cc(O)c4c3=O)[C@H](O)[C@@H](O)[C@@H]2O)[C@H](O)[C@H](O)[C@H]1O [Rutin, rutin]",IC50 at 48 h,WST-1 cytotoxicity assay,1230 ± 195 µg/mL
same,cytotoxicity against normal cells (in words),WI-38 cells,negligible cytotoxicity
"OC[C@@H](O)[C@@H](O)[C@H](O)[C@H](O)CO [Mannitol, mannitol]",Hydroxyl radical (OH) scavenging IC50,[8],571.45 ± 20.12 µg/mL
"Oc1cc(O)c2c(c1)OC(c1ccc(O)c(O)c1)C(O)C2 (single isomer, unassigned; (+)) [Catechin, (+) catechin]",Cytotoxicity assay IC50,WI-38 cells,753.56 ± 31.99 µg/mL
same,in vitro iron chelation ability (in words),[2],failed to chelate iron
same,Iron chelating activity IC50,[2],1940.22 ± 179.61 µg/mL
"COC(=O)[C@H]1[C@H]2C[C@@H]3c4[nH]c5cc(OC)ccc5c4CCN3C[C@H]2C[C@@H](OC(=O)c2cc(OC)c(OC)c(OC)c2)[C@@H]1OC [Reserpine, reserpine]",IC50 at 48 h,WST-1 cytotoxicity assay,44.8 ± 2.06 µg/mL
same,cytotoxicity against normal cells (in words),WI-38 cells,most toxic compound
same,in vitro iron chelation ability (in words),[2],failed to chelate iron
same,Iron chelating activity IC50,[2],3095.13 ± 438.00 µg/mL
"O=C(O)c1cc(O)c(O)c(O)c1 [Gallic acid, gallic acid]",Peroxynitrite (ONOO-) scavenging IC50,Peroxynitrite scavenging,0.876 ± 0.57 mg/mL
"CC(=O)C(=O)[O-].[Na+] [Sodium pyruvate, sodium pyruvate]",Hydrogen peroxide (H2O2) scavenging IC50,[9],3.24 ± 0.30 mg/mL
"O=C1c2ccccc2C(=O)c2c(O)c(O)cc(O)c21 [Purpurin, purpurin]",IC50 at 48 h,WST-1 cytotoxicity assay,1470 ± 291 µg/mL
same,cytotoxicity against normal cells (in words),WI-38 cells,negligible cytotoxicity
same,Iron chelating activity IC50,[2],252.37 ± 4.08 µg/mL
"O=C(O)CN(CCN(CC(=O)O)CC(=O)O)CC(=O)O [EDTA, Ethylenediamine tetraacetic acid]",Iron chelating activity IC50,[2],1.27 ± 0.05 µg/mL

# Reference: article PMC4444084, “An Antioxidant Extract of the Insectivorous Plant Drosera burmannii Vahl. Alleviates Iron-Induced Oxidative Stress and Hepatic Injury in Mice” (PLoS ONE, 2015)
